Results: patent US10118894B2, “Isoindolinone derivatives useful as antiviral agents” (priority 2014, dated 2018)

test system: HIV; assay: MT4 Assay (anti-HIV activity); type: cell-based; conditions: Human immunodeficiency virus 1, MT4, 96 h, read-out: HIV MT4 Assay IC50
Procedure: Antiviral HIV activity and cytotoxicity values for compounds of the invention from Table 1 were measured in parallel in the HTLV-1 transformed cell line MT-4 based on the method previously described (Hazen et al., 2007, In vitro antiviral activity of the novel, tyrosyl-based human immunodeficiency virus (HIV) type 1 protease inhibitor brecanavir (GW640385) in combination with other antiretrovirals and against a panel of protease inhibitor-resistant HIV (Hazen et al., “In vitro antiviral activity of the novel, tyrosyl-based human immunodeficiency virus (HIV) type 1 protease inhibitor brecanavir (GW640385) in combination with other antiretrovirals and against a panel of protease inhibitor-resistant HIV”, Antimicrob. Agents Chemother. 2007, 51: 3147-3154; and Pauwels et al., “Sensitive and rapid assay on MT-4 cells for the detection of antiviral compounds against the AIDS virus”, J. of Virological Methods 1987, 16: 171-185).
Luciferase activity was measured 96 hours later by adding a cell titer glo (Promega, Madison, Wis.). Percent inhibition of cell protection data was plotted relative to no compound control. Under the same condition, cytotoxicity of the compounds was determined using cell titer Glo™ (Promega, Madison, Wis.). IC50s were determined from a 10 point dose response curve using 3-4-fold serial dilution for each compound, which spans a concentration range >1000 fold.
These values are plotted against the molar compound concentrations using the standard four parameter logistic equation: y=((Vmax*x^n)/(K^n+x^n))+Y2

| Compound | IC50 |
| --- | --- |
| Cc1c(-c2c(C)c3c(c(C)c2[C@H](OC(C)(C)C)C(=O)O)C(=O)N(Cc2ccccc2)C3)cc(F)c2c1CCCO2 (atropisomer, axis not shown; (M)) [Example 5, (S)-2-((M)-2-Benzyl-6-(8-fluoro-5-methylchroman-6-yl)-4,7-dimethyl-3-oxoisoindolin-5-yl)-2-(tert-butoxy)acetic acid] | 0.005 µM |
| Cc1c(-c2c(C)c3c(c(C)c2[C@H](OC(C)(C)C)C(=O)O)C(=O)N(Cc2ccccc2)C3)cc(F)c2c1NCCO2 (atropisomer, axis not shown; (M)) [Example 7, (S)-2-((M)-2-benzyl-6-(8-fluoro-5-methyl-3,4-dihydro-2H-benzo[b][1,4]oxazin-6-yl)-4,7-dimethyl-3-oxoisoindolin-5-yl)-2-(tert-butoxy)acetic acid] | 0.014 µM |
| Cc1ccc(-c2c(C)c3c(c(C)c2C(OC(C)(C)C)C(=O)O)C(=O)N(Cc2ccccc2)C3)cc1 (stereo not shown) [Example 1, 2-(2-Benzyl-4,7-dimethyl-3-oxo-6-(p-tolyl)isoindolin-5-yl)-2-(tert-butoxy)acetic acid] | 0.025 µM |
| Cc1ccc(-c2c(C)c3c(c(C)c2[C@H](OC(C)(C)C)C(=O)O)C(=O)N(Cc2ccccc2)C3)cc1 [Example 2] | 0.042 µM |
| Cc1c2c(c(C)c(C(OC(C)(C)C)C(=O)O)c1-c1ccc(Cl)cc1)C(=O)N(Cc1ccccc1)C2 (stereo not shown) [Example 3, 2-(2-benzyl-6-(4-chlorophenyl)-4,7-dimethyl-3-oxoisoindolin-5-yl)-2-(tert-butoxy)acetic acid] | 0.086 µM |
| Cc1c2c(c(C)c(C(OC(C)(C)C)C(=O)O)c1-c1ccc3c(c1)CCCO3)C(=O)N(Cc1ccccc1)C2 (stereo not shown) [Example 4, 2-(2-benzyl-6-(chroman-6-yl)-4,7-dimethyl-3-oxoisoindolin-5-yl)-2-(tert-butoxy)acetic acid] | 0.052 µM |
| Cc1c2c(c(C)c([C@H](OC(C)(C)C)C(=O)O)c1C1=CCC(C)(C)CC1)C(=O)N(Cc1ccccc1)C2 [Example 6, (S)-2-(2-benzyl-6-(4,4-dimethylcyclohex-1-en-1-yl)-4,7-dimethyl-3-oxoisoindolin-5-yl)-2-(tert-butoxy)acetic acid] | 0.036 µM |
